Here are results for four compounds from patent US20260325500A1, “METHODS AND COMPOSITIONS FOR TREATING ACUTE STRESS DISORDER” (BioXcel Therapeutics, Inc., priority 2022, published 2026).

Experiment [1] deals with Yohimbine-induced noradrenergic hyperarousal in Wistar rats. Kind of experiment: Elevated plus maze, yohimbine-induced noradrenergic hyperarousal, dose response (Example 3). The experiment is classed as in vivo. The note with it: 30 min. The text has this: Background: Yohimbine is an alpha 2-adrenergic receptor antagonist reported to trigger panic attacks in healthy volunteers and to exacerbate symptoms in patients with panic disorder (Charney et al., 1992 Acta Psychiatr Scand., Vol. 86 (4): 273-282). Peripheral administration of Yohimbine causes noradrenergic mediated hyperarousal in rats as assessed by the EPM paradigm.
Rationale: The drug yohimbine is a natural product used to test a specific pathway, noradrenergic-mediated hyper-arousal. It is well established that yohimbine is an alpha2-adrenergic receptor antagonist and activates the locus coeruleus (LC) and increases noradrenergic signaling (the opposite of alpha2-adrenergic agonists like dexmedetomidine and clonidine). Increased LC activity and noradrenergic signaling makes animals anxious and agitated which can be measured by using the elevated plus maze. In the elevated plus maze, rodents were in the closed arms and explored the open arms depending on their anxiety and agitation (rats and mice normally explore their environments extensively when calm). […] This behavior is correlated to increased level of anxiety caused by noradrenergic mediated hyperarousal.
Animal groups: Rats were distributed in 9 different experimental groups with 12 […] per group as illustrated in Table 6. Each experimental group was also coded so that the experimenter became unaware of the true experimental group at the time EPM trial.
Acclimatization: Male Wistar rats (Janvier; Le Genest St Isle-France) were used for the study. They were purchased at a body weight of 150 g and reached a body weight of about 220 g at the time of use. They were group-housed (3-4 rats per cage) and maintained in a room with controlled temperature (21-22° C.) and a reversed light-dark cycle (12 h/12 h; lights on: 17:30-05:30; lights off: 05:30-17:30).
Drug preparation: All compounds/drugs were prepared in normal saline (0.9% NaCl).
Yohimbine was prepared at a solution of 2.5 mg/mL which when injected i.p. at a dosage volume of 1 mL/kg results in a dose of 2.5 mg/kg. Diazepam was prepared at a solution of 1 mg/mL which when injected i.p. at a dosage volume of 1 mL/kg results in a dose of 1 mg/kg. Latrepirdine dihydrochloride hydrate was prepared at a solution of 7.5, 2.5, 0.75 and 0.25 mg/mL which when injected i.m. at a volume of 100 μL for a rat of 250 g results in doses of 3; 1; 0.3 and 0.1 mg/kg; respectively. Latrepirdine dihydrochloride hydrate was also prepared at […] which when administrated i.p. at a dosage volume of 1 mL/kg results in a dose of 3 mg/kg.
Experimental procedure: The rats were randomly assigned to one of the different experimental groups. Each animal was identified by its group name, cage number, series (day) of experiment, and a number (from 1 to 9) written with permanent ink on its tail. They were handled by an experimenter for about 3 min each day during 1 week prior to the day of EPM trial. The apparatus was a PVC maze covered with Plexiglas and subdivided into four equal exploratory arms (40×10 cm), which were all interconnected by a small platform (10×10 cm). The apparatus was placed 65 cm above the floor. Two arms were opened, and two others were closed with wall (high: 10 cm). After compound administration, rat was placed on the platform opposite a closed arm. The number of entries and the time spent in each arm were recorded during a 5 min period. The animal was considered as entered in an arm when it placed its four paws in the arm. The apparatus was cleaned between each animal using alcohol (70%). Urine and feces were removed from the maze. During the trials, animal handling and the visibility of the operator were minimized as much as possible.
Statistical analysis: Analysis of variance (ANOVA) was performed on the result data. Fisher's PLSD was used for pairwise comparisons and p value≤0.05 were considered significant. […]

For experiment [2], the system named is mouse behavior (SmartCube signature). In words: SmartCube system behavioral classification (Example 6). The experiment is classed as in vivo, Male C57/B16 mice. The note with it: IP. The text has this:
Dexmedetomidine and latrepirdine have anti-psychotic effects, when tested in the SmartCube® system (Psychogenics, Inc., Paramus, NJ; See also U.S. Pat. No. 7,580,798 incorporated herein by reference in its entirety). This system uses features derived from mouse behavioral data to first, classify mice on compound versus vehicle. This measure indicates how well the system can differentiate between a mouse on compound versus a mouse on vehicle. Secondly, by comparing the features to a proprietary reference database of behavioral feature sets that are linked to classes of marketed drugs known to treat neuro-psychiatric symptoms SmartCube® assigns a signature to the behavior. Thus, the system can be used as a model to identify both the activity and the psychiatric effect of a compound by comparing the effects of the compounds against drugs with known validated effects.
By comparing the responses of animals to known drugs, the test drug can be categorized according to its function; for example, hallucinogen, anxiogenic, analgesic, cognitive enhancer, psychostimulant, mood stabilizer, high dose anti-psychotic, anti-psychotic, sedative/hypnotic, anxiolytic, high dose antidepressant, antidepressant.
Once all features are extracted from the raw data through an automated pipeline, proprietary bioinformatics algorithms are used to decorrelate groups of features and find the combination of values that best separate different groups of interest. For each compound, at each dose, they system provides a probability that the drug is active and breaks down such putative activity into the different classes of interest.
SmartCube reference data used herein include anti-psychotics and anti-depressants tested at several dose ranges. “Anti-psychotic” versus “high dose anti-psychotic” as indicated in the legend, reflects the notion that anti-psychotics reference data is dose dependent. Anti-psychotics, when administered at higher doses, can engage additional receptor systems, and thus affect mouse behavior differently. The same applies for different doses of anti-depressants.
Animals: Male C57/B16 mice (N=12 per group) from Taconic Laboratories were used. Upon receipt, mice were group-housed in OPTI mouse ventilated cages with 4 mice per cage. Mice were acclimated to the colony room for at least one week prior to test and subsequently tested at approximately 8-9 weeks of age. All animals were examined, handled, and weighed prior to initiation of the study to assure adequate health and suitability and to minimize non-specific stress associated with manipulation.
All compounds tested were formulated in NP3 (vehicle solution): 5% Pharmasolve; 30% P3 (1:1:1 PEG200: PEG400: propylene glycol); 65% saline; pH is 5.1-6.
Test groups were: • Vehicle: NP3 • Dexmedetomidine at 0.005 and 0.010 mg/kg • Latrepirdine at 1 and 10 mg/kg • Dexmedetomidine and latrepirdine combinations (in mg/kg): 0.005/1.0; 0.005/10; 0.010/1.0; 0.010/10
Test compounds were injected intraperitoneally (IP) for 15 min before animals were placed in SmartCube for assessment.
Antipsychotic: SmartCube classifies the mouse behavior with test compound as similar to treatment with marketed anti-psychotics at therapeutically relevant doses.
High Dose Antipsychotic: SmartCube classifies the mouse behavior on test compound as similar to treatment with marketed anti-psychotics at doses that are considered as high therapeutically. High doses of anti-psychotics often cause sedation.
The results for the class analyses are presented as standardized bar charts with percentages that sum to 100 for each dose. The percentage indicates the probability the classifier can differentiate between the vehicle group and test group. The pattern indicates what class signature was assigned.

Experiment [3] has as its system rat forced swim test model (depressive-like behavior). In words: Forced swim test in dark phase (Example 4). In kind it is in vivo, Sprague Dawley rats. The note with it: 30 mg/kg, p.o.; versus vehicle saline, 5 minutes observation. An excerpt: Animal groups: Male Sprague Dawley (SD) rats (8-10 weeks old) were grouped housed 2 per cage in standard animal cages with facilities for pelleted food and drinking water in polycarbonate bottle with stainless steel sipper tubes. During the experimental period, animals were housed in a single experimental room. Rats were distributed in 7 different experimental groups with 9-12 rats per group as illustrated in Table 8. Animals were distributed to different groups based on body weight data. Each experimental group was also coded so that the experimenter became unaware of the true experimental group at the time FST trial.
Animals were housed in an environment-controlled room at 22±3° C. and relative humidity of 30 to 70 percent. During the study, 12/12 light/dark cycles were maintained. Lights of the acclimatization area were switched off at 06:00 PM. All experiments were carried out at ambient temperature under dark phase of lighting (between 06:00 PM to 06:00 AM). Adequate fresh air supply of 12-15 air changes/hour was maintained in the experimental room. The maximum and minimum temperature and relative humidity in the experimental rooms was recorded once daily. The relative humidity in the experimental room was calculated daily from dry and wet bulb temperature recordings.
Swim 1 was carried out between 18:30 to 21:30.
Swim 2 was carried out between 19:30 to 21:30. Animals were administered test compounds from 18:30 onwards in staggered manner 60 minutes before FST 2.
Forced swim test was carried out in dark phase
On Day 1, animals were subjected to forced swim test training for 15 minutes (Swim 1) and on Day 2, Swim 2 was carried out post treatment.
On day 2 animals were dosed with respective treatment 60 min prior to performing FST.
Forced swim test (Swim 2) was scored manually with no video recording.
Forced swim test (FST), was used to study the depressive-like behavior in rodents. The test was carried out in transparent cylindrical glass containers measuring 46 cm in height and 20 cm in diameter.
There were 2 swim sessions, 24 h apart. The first session, Swim 1 was the pretest/training stage (15 min) and the second session, Swim 2, was the test stage (8 min).
In swim 2, first 1-minute data was excluded from analysis and rest 7 minutes data was considered. In 7 minutes, data, it was divided 5 minutes and 2 minute.
Twenty-four hours after the start of Swim 1, the test swim (Swim 2) was carried out.
Rat was placed in the water-filled cylinder for 8 min (Swim 2).
The duration of time spent immobile, swimming, and climbing was observed by an observer blind to the treatment group.
Immobility period: A rat was judged to be immobile when it remained floating in the water without struggling and was making only those movements necessary to keep its head above water.
Statistical analysis: One Way ANOVA, Dunnet's multiple comparison test was applied with respect to vehicle saline and Tukey's multiple comparison test was applied to compare the data in between the groups using GraphPad Prism version 9 software.

The subject of experiment [4] is CCK-4 induced panic anxiety in rats. Kind of experiment: Elevated plus maze, CCK-4 induced panic anxiety (Example 8). The experiment is classed as in vivo, Wistar rats. The note with it: diazepam 1 mg/kg; CCK4 0.2 mg/kg i.p. An excerpt: Rationale: In the past two decades panic induction with cholecystokinin-tetrapeptide (CCK-4) as an experimental model of human anxiety has become a focus of intensive research. CCK-4 is a synthetic analog of the endogenous neuropeptide cholecystokinin (CCK), which has been found in different brain regions. Particularly, high concentrations of CCK have been detected in regions that have been implicated in the mediation of panic attacks such as the cerebral cortex, amygdala, hippocampus, and brainstem nuclei. CCK-4 dose dependently induces panic attacks in healthy controls. Thus, CCK-4 has been postulated to fulfil the criteria for an ideal and valid panicogenic agent. […] Therefore, the CCK-4 challenge paradigm can serve as a useful tool to evaluate the anti-panic potential of novel anxiolytic compounds.
Animal groups: Male Wistar Rats were purchased at a body weight of 150 g and reached a body weight of about 220 g at the time of use. Animals were distributed in 6 different experimental groups with 12 […] per group as illustrated in Table 11. Each experimental group was also coded so that the experimenter became unaware of the true experimental group at the time EPM trial.
Study drugs: All compounds/drugs were prepared in saline (0.9% NaCl).
CCK-4 was prepared at a solution of 0.2 mg/ml which when injected i.p. at a dosage volume of 1 ml/kg results in a dose of 0.2 mg/kg.
Diazepam was prepared at a solution of 1 mg/ml which when injected i.p. at a dosage volume of 1 ml/kg results in a dose of 1 mg/kg.
Latrepirdine was prepared at concentrations of 2.5, 7.5, 25 and 37.5 mg/ml which when injected i.m. at a volume of 100 μL for a rat of 250 g results in doses of 1, 3, 10 and 15 mg/kg respectively.
Study design and dosing: The rats were randomly assigned to one of the different experimental groups. Each animal was identified by its group name, cage number, series (day) of experiment, and a number (from 1 to 4) written with permanent ink on its tail. They were handled by an experimenter for about 3 min each day during 1 week prior to the day of EPM trial.
The apparatus is a PVC maze covered with Plexiglas and subdivided into four equal exploratory arms (40×10 cm), which are all interconnected by a small platform (10×10 cm). The apparatus is placed 65 cm above the floor. Two arms are opened, and two others are closed with wall (high: 10 cm).
After compound administration, rat is placed on the platform opposite a closed arm. The number of entries and the time spent in each arm are recorded during a 5 min period. The animal is considered as entered in an arm when it places its four paws in the arm.
Statistical analysis: Data was analyzed using One-Way ANOVA followed by multiple comparison with Dunnett's post-hoc test. All statistical analyses were performed using GraphPad Prism software package (Version 9) and p value below 0.05 was considered as significant.

The mark [5] stands for this setting: diazepam 1 mg/kg, i.p., yohimbine hydrochloride 2.5 mg/kg i.p.

Structures can show the parent of a compound that is named as a salt. Marks after values point to notes of the source that are not given here.

With `COC(=O)[C@@H]1[C@H]2C[C@H]3c4[nH]c5ccccc5c4CCN3C[C@@H]2CC[C@@H]1O` [yohimbine], the “number of visits to and time spent into the open arms versus vehicle-treated saline rats” value in experiment [1] (yohimbine 2.5 mg/kg i.p.) is “marked significant decrease”.

`Cc1cccc([C@H](C)c2cnc[nH]2)c1C` [dexmedetomidine, (+) 4-(S)-[1-(2,3-dimethylphenyl)ethyl]-1H-imidazole]: in experiment [2] (0.005 and 0.010 mg/kg), the SmartCube signature result is recorded as “antipsychotic signature”. The values for the SmartCube total activity in experiment [2] (dexmedetomidine 0.005 mg/kg) and in experiment [2] (dexmedetomidine 0.010 mg/kg) were 9% and 40%, respectively.

With `CNCCCN1c2ccccc2CCc2ccccc21` [desipramine hydrochloride], in experiment [3], the climbing time result was “increase”, the immobility time result is reported as “significant decrease” and the swimming time entry is “failed to show any significant effect”.

On to `CN1C(=O)CN=C(c2ccccc2)c2cc(Cl)ccc21` [Diazepam], for which, in experiment [1] (setting [5]), the “Percent increase as referred to the Vehicle level, Entries” value was 294% and the “Percent increase as referred to the Vehicle level, Time” value came out at 642%. Besides, in experiment [4], the “Entries, % increase as compared to CCK-4/Vehicle” value is “(400.00) **** %”; the “Entries, Mean ± SEM” value was 9.5±0.5 n; the “Time, % increase as compared to CCK-4/Vehicle” value is “(652.27) **** %”; the “Time, Mean ± SEM” value stood at 99.3 ± 3.8 s.
